Publication PMC11997881, “Comprehensive Characterization of Bruton’s Tyrosine Kinase Inhibitor Specificity, Potency, and Biological Effects: Insights into Covalent and Noncovalent Mechanistic Signatures” (ACS Pharmacology & Translational Science, 2025)

Columns and labels:
[1] = target: JNK2 (MAPK9) (Homo sapiens, UniProt P45984); test: scanMAX binding POC, JNK2; settings: 1 μM
Experimental: (§9) The compounds were diluted directly into the assays such that the final concentration of DMSO was 0.9%. No enzyme purification steps were performed on the protein extracts before adding them to the reaction mixture, and the protein extracts were diluted 10,000-fold in the final reaction mixture (the final DNA-tagged enzyme concentration was less than 0.1 nM). Binding assay mixtures were incubated at 25 °C with shaking for 1 h. […] The concentration of wild-type or mutant BTK in the eluates was then determined using quantitative PCR. […] Each assay’s affinity ligand concentration on the magnetic beads has been optimized to ensure that the true thermodynamic Kd values for competitor molecules were measured, as described in detail previously99.
(§10) Comparison of BTK inhibitor specificity to c-Jun N-terminal kinases (JNK1-3/MAPKP8-10).
(§11) a The percent of control (POC) is the percent of kinase that was competed off its control ligand relative to the positive and negative controls at the screening concentration56. A zero POC signifies that the compound

[2] = target: ERBB2 (Homo sapiens, UniProt P04626); test: scanMAX binding POC, ERBB2; settings: 1 μM
[3] = target: JNK3 (MAPK10) (Homo sapiens, UniProt P53779); test: scanMAX binding POC, JNK3; settings: 1 μM
Experimental: as §9, §10, §11

[4] = target: ERBB4 (Homo sapiens, UniProt Q15303); test: scanMAX binding POC, ERBB4; settings: 1 μM
[5] = target: T1, TXK (Homo sapiens, UniProt P42681); test: scanMAX binding POC, TXK; settings: 1 μM
T1 sequence (P42681 1-527): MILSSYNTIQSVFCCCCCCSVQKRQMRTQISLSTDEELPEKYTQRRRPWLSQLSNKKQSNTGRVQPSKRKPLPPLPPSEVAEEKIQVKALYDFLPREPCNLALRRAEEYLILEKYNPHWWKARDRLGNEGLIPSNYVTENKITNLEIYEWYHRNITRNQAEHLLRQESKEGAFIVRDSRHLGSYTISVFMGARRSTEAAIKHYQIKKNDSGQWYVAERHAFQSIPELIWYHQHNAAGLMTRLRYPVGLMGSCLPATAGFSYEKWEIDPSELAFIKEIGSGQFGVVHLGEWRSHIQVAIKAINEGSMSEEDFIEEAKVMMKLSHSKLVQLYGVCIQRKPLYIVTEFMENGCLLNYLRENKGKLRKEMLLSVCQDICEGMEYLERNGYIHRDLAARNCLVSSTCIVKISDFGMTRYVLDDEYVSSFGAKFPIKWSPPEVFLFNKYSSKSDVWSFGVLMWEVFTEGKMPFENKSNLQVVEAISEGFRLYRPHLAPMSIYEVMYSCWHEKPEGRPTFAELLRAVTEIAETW
Source text: (§1) Comprehensive Characterization of Bruton’s Tyrosine Kinase Inhibitor Specificity, Potency, and
(§2) Biological Effects: Insights into Covalent and Non-Covalent Mechanistic Signatures
(§3) Antonia C. Darragh1, Andrew M. Hanna1, Justin H. Lipner2, Alastair J. King2, Nicole B. Servant1, Mirza Jahic1*
(§4) *To whom correspondence should be addressed: Mirza Jahic, e-mail address: Mirza.Jahic@discovery.eurofinsus.com
(§5) Supporting Table S1. Comparison of BTK inhibitor specificity to TEC family members. TEC family members are
(§6) Burton’s tyrosine kinase (BTK), tyrosine kinase expressed in hepatocellular carcinoma (TEC), bone marrow-
(§7) expressed kinase (BMX/ETK), and T cell-expressed kinase (TXK/RLK), and interleukin-2-inducible T cell kinase
(§8) A zero POC signifies that the compound

[6] = target: T2, JAK3 (JH1 catalytic domain) (Homo sapiens, UniProt P52333); test: scanMAX binding POC, JAK3; settings: 1 μM
T2 construct: The JAK3 POC is for its JH1 catalytic domain

[7] = target: BLK (Homo sapiens, UniProt P51451); test: scanMAX binding POC, BLK; settings: 1 μM
[8] = target: T3, TEC (Homo sapiens, UniProt P42680); test: scanMAX binding POC, TEC; settings: 1 μM
T3 sequence (P42680 1-631): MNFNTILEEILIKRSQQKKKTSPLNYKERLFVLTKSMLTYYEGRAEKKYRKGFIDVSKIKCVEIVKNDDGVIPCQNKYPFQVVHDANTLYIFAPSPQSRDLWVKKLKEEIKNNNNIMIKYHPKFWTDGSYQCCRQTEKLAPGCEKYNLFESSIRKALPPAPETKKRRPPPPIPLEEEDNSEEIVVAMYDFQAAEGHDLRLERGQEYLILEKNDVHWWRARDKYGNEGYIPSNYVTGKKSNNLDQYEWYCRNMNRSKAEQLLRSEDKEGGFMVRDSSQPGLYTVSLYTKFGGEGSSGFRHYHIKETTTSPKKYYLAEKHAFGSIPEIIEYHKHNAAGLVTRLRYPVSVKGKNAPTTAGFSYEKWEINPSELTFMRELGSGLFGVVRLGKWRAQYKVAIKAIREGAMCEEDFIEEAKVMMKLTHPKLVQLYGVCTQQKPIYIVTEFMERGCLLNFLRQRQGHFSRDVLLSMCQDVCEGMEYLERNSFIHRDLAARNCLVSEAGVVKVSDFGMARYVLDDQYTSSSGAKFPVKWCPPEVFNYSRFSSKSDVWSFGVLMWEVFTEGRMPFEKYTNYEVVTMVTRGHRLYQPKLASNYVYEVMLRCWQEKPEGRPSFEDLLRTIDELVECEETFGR
Source text: as §1, §2, §3, §4, §5, §6, §7, §8

[9] = target: T4, ITK (Homo sapiens, UniProt Q08881); test: scanMAX binding POC, ITK; settings: 1 μM
T4 sequence (Q08881 1-620): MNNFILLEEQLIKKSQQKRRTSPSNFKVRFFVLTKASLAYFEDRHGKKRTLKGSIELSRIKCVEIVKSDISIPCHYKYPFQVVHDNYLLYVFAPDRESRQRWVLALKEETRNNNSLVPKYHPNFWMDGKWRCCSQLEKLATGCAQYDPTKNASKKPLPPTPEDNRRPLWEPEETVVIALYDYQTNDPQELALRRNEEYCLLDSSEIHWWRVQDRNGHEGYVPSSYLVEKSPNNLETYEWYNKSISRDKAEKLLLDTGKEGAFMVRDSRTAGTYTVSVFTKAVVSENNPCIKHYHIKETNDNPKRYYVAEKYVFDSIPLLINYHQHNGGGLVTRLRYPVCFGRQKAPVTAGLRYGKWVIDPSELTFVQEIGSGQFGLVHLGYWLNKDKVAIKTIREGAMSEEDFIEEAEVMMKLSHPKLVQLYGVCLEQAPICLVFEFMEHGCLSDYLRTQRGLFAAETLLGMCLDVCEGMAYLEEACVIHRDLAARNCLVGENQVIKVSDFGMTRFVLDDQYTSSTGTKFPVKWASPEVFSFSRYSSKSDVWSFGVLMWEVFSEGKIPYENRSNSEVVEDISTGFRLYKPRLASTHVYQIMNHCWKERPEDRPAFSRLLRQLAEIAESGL
Source text: as §1, §2, §3, §4, §5, §6, §7, §8

[10] = target: EGFR (Homo sapiens, UniProt P00533); test: scanMAX binding POC, EGFR; settings: 1 μM
[11] = target: JNK1 (MAPK8) (Homo sapiens, UniProt P45983); test: scanMAX binding POC, JNK1; settings: 1 μM
Experimental: as §9, §10, §11

[12] = target: T5, BTK (Homo sapiens, UniProt Q06187); test: scanMAX binding POC, BTK; settings: 1 μM; zero POC = competition comparable to positive control
T5 construct: host or cells: transiently transfected HEK293 cells
Source text: as §1, §2, §3, §4, §5, §6, §7, §8

[13] = target: T6, MKK7 (Homo sapiens, UniProt O14733); test: scanMAX binding POC, MKK7; settings: 1 μM
T6 sequence (O14733 1-419): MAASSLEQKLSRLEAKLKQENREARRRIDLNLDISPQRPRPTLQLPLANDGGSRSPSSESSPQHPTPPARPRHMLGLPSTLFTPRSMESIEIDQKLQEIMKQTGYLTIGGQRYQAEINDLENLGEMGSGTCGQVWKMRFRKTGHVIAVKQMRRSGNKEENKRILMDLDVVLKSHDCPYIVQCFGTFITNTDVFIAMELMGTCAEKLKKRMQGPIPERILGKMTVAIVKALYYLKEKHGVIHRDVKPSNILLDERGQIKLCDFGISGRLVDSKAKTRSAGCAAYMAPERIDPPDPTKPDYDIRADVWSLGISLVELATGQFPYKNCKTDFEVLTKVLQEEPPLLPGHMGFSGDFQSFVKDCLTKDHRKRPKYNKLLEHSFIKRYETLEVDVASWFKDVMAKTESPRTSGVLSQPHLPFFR

[14] = target: ERBB3 (Homo sapiens, UniProt P21860); test: scanMAX binding POC, ERBB3; settings: 1 μM
[15] = tested on: patients with R/R MCL; parameters: method as in NCT03494179; settings: ref NCT03494179; cited from earlier work
[16] = target: T7, BMX (Homo sapiens, UniProt P51813); test: scanMAX binding POC, BMX; settings: 1 μM
T7 sequence (P51813 1-675): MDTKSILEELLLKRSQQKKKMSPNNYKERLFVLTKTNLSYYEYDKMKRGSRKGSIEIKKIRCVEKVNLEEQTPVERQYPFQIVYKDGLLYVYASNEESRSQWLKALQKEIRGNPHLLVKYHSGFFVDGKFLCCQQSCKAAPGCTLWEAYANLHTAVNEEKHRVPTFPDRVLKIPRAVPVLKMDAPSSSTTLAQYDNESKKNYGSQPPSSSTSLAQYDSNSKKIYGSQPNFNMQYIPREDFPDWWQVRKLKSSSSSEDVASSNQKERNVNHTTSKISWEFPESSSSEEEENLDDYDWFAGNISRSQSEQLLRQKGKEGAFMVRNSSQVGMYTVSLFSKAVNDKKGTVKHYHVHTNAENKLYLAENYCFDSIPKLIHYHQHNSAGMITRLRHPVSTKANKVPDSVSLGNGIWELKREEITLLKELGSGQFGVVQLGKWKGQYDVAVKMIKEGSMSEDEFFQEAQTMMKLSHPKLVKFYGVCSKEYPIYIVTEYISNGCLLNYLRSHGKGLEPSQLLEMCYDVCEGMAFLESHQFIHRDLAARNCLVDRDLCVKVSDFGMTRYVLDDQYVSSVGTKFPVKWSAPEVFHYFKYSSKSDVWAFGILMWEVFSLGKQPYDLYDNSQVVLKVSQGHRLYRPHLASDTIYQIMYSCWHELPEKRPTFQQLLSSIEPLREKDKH
Source text: as §1, §2, §3, §4, §5, §6, §7, §8

[17] = tested on: 468 kinases/kinase domains; settings: scanMAX at 1 μM, POC <35
Experimental: The compounds were diluted directly into the assays such that the final concentration of DMSO was 0.9%. No enzyme purification steps were performed on the protein extracts before adding them to the reaction mixture, and the protein extracts were diluted 10,000-fold in the final reaction mixture (the final DNA-tagged enzyme concentration was less than 0.1 nM). Binding assay mixtures were incubated at 25 °C with shaking for 1 h. […] The concentration of wild-type or mutant BTK in the eluates was then determined using quantitative PCR.

[18] = tested on: BTK; settings: cited from earlier work

ERBB2, sequence (P04626 23-1255): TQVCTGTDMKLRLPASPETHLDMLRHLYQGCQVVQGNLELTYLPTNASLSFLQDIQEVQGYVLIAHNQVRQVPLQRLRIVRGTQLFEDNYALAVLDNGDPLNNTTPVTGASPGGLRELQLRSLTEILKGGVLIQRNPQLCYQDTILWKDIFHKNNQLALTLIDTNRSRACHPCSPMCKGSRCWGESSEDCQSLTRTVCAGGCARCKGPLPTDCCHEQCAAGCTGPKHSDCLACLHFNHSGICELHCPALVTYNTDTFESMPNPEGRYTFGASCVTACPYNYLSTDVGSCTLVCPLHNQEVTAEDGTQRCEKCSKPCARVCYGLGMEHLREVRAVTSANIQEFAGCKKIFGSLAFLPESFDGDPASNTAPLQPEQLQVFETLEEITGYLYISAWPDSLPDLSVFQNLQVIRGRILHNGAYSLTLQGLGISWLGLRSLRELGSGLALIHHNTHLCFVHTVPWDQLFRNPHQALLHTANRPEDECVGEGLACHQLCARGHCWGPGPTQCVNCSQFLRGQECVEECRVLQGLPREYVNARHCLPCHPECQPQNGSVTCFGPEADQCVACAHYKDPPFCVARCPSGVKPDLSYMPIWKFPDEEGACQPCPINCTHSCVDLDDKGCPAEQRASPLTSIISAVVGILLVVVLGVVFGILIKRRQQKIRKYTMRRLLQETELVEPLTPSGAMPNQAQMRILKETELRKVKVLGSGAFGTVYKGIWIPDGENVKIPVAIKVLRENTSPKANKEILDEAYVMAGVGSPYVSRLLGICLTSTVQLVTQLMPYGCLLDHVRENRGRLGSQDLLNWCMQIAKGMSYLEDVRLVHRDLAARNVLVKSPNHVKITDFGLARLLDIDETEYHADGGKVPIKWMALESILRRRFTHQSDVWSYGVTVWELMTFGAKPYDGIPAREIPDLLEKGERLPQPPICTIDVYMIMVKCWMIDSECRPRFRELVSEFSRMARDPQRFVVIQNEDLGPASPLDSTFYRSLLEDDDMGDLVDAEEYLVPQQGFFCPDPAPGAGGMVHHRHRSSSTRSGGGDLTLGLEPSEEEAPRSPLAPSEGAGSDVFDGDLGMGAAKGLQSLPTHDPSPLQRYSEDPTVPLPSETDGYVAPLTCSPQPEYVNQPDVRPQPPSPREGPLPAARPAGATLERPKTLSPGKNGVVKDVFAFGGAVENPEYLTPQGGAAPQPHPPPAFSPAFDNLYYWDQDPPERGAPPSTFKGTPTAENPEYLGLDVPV
ERBB3, sequence (P21860 20-1342): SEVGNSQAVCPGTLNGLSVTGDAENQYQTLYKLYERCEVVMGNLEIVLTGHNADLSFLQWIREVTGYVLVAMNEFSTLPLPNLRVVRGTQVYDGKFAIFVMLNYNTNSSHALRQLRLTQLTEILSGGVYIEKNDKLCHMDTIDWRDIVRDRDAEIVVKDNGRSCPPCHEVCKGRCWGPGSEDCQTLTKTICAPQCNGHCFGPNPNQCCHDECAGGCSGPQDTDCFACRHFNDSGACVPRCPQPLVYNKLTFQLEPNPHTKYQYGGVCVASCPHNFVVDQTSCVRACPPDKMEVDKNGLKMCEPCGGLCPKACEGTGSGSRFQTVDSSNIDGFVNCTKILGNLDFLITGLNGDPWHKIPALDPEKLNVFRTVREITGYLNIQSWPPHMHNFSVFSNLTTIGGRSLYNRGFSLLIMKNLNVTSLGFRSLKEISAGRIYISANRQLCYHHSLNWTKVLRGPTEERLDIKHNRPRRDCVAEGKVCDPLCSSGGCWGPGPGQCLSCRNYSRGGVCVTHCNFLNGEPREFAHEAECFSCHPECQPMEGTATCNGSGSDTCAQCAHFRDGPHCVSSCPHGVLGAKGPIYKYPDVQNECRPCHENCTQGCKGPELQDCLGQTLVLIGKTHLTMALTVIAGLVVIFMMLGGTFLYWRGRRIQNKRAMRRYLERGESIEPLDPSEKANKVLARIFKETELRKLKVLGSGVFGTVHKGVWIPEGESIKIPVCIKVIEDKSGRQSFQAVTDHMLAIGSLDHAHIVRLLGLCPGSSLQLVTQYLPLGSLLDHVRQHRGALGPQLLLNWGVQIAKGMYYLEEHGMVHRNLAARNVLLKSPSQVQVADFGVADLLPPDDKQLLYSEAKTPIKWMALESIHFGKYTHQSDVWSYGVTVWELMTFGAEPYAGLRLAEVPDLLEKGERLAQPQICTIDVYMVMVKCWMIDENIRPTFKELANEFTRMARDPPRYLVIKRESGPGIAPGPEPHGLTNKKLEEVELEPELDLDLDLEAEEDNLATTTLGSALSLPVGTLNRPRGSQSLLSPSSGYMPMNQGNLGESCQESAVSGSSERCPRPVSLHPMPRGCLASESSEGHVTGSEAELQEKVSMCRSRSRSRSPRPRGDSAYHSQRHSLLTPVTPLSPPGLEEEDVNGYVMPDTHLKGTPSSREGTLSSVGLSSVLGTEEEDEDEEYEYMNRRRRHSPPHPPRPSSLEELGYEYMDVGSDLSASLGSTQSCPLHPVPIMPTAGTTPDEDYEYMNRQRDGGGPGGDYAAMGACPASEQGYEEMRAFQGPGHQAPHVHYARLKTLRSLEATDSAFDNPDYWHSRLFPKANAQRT
ERBB4, sequence (Q15303 26-1308): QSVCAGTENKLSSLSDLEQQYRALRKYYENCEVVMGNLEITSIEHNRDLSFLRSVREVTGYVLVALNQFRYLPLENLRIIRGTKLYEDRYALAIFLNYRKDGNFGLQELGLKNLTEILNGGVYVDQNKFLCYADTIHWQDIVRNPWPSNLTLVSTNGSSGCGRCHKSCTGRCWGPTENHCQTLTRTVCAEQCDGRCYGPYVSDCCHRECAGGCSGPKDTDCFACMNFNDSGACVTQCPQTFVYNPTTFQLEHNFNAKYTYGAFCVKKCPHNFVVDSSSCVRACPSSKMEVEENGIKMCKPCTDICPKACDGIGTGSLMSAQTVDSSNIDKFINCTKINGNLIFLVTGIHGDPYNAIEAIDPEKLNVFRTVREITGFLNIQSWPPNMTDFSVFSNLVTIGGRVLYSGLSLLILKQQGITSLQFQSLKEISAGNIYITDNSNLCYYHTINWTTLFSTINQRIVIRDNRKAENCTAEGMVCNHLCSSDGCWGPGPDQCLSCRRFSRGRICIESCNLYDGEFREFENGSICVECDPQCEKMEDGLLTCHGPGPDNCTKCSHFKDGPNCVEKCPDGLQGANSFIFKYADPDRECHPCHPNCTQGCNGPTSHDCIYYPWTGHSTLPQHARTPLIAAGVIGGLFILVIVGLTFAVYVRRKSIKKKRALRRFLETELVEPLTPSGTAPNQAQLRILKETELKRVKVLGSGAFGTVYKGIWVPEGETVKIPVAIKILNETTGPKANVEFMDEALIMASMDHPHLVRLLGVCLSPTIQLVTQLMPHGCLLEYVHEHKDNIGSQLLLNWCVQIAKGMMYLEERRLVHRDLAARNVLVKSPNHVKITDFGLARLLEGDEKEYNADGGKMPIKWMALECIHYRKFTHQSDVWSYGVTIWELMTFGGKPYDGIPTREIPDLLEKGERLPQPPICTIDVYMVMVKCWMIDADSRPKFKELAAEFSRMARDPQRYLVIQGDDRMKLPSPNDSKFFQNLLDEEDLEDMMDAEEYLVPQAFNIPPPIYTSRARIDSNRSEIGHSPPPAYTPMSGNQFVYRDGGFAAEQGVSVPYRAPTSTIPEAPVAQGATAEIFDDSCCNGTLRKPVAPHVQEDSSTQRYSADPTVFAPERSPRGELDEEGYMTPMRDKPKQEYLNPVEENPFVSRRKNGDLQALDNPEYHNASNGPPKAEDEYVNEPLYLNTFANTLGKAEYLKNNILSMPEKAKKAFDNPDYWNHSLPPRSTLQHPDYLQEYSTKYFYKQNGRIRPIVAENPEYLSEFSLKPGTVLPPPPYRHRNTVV
JNK2 (MAPK9), sequence (P45984 whole entry): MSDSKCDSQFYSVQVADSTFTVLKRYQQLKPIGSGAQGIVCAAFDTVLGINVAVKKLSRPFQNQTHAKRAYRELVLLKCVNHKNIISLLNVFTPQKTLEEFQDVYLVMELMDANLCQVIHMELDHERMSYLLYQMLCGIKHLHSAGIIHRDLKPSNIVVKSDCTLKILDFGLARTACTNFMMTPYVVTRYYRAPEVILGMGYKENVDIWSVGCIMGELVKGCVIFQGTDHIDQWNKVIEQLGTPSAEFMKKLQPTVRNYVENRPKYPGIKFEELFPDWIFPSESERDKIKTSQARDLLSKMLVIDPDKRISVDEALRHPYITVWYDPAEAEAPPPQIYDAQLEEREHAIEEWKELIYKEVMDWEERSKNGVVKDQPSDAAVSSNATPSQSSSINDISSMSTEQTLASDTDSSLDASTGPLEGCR
BLK, sequence (P51451 whole entry): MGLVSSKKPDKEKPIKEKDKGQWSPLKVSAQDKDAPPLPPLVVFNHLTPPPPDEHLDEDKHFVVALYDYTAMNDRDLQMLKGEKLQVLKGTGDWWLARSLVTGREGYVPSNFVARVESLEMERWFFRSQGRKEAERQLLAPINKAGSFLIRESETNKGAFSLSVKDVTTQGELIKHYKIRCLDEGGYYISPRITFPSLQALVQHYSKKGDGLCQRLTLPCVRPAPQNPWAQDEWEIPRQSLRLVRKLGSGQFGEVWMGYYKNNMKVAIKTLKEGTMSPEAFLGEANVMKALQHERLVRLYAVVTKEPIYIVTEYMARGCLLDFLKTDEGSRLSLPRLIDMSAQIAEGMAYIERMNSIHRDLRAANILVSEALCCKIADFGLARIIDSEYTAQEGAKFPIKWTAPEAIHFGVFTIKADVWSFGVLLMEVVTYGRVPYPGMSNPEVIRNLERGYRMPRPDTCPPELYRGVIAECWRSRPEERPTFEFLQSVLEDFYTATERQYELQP
T2 sequence (P52333 822-1111 limits assumed): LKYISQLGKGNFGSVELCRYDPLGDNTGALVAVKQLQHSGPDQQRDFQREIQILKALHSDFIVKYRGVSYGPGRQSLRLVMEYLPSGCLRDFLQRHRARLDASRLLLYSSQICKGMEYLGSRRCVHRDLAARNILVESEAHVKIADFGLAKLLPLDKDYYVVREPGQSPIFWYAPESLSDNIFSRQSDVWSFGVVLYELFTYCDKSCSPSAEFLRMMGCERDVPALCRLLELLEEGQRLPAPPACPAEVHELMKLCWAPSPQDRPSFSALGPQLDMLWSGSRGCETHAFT

Row | JNK2 (MAPK9) POC [1] | ERBB2 binding POC [2] | JNK3 (MAPK10) POC [3] | ERBB4 binding POC [4] | TXK binding POC [5] | JAK3 binding POC [6] | BLK binding POC [7] | TEC binding POC [8] | ITK binding POC [9] | EGFR binding POC [10] | JNK1 (MAPK8) POC [11] | BTK binding POC [12] | MKK7 binding POC [13] | ERBB3 binding POC [14] | BMX binding POC [16] | Structure (SMILES) | further results
1 | 89% of control | 100% of control | 89% of control | 75% of control | 2% of control | 48% of control | 3.2% of control | 7.8% of control | 17% of control | 77% of control | 82% of control | 0% of control | 100% of control | 75% of control | – | CC#CC(=O)N[C@H]1CCCN(c2c(F)cc(C(N)=O)c3[nH]c(C)c(C)c23)C1 [Branebrutinib] | –
2 | 100% of control | 100% of control | 100% of control | 96% of control | 34% of control | 89% of control | 52% of control | – | 100% of control | – | 100% of control | – | 100% of control | 88% of control | 27% of control | C=CC(=O)N1CCC(c2ccc(C(N)=O)c(-c3ccc(Oc4ccccc4)cc3)n2)CC1 [Orelabrutinib] | CR [15]: 27.4%; PR [15]: 53.8%; overall response rate [15]: 81.1%
3 | 99% of control | 100% of control | 100% of control | 100% of control | 97% of control | 100% of control | 100% of control | 20% of control | 97% of control | 99% of control | 93% of control | 0.15% of control | 100% of control | 100% of control | – | C=CC(=O)N(C)CCOc1c(N)ncnc1-c1cc(F)cc(NC(=O)c2ccc(C3CC3)cc2F)c1C [Remibrutinib] | off-target hits [17]: one; IC50 [18]: 1.3 nM
4 | 83% of control | 0% of control | 90% of control | – | 1.1% of control | 36% of control | 0.05% of control | – | 67% of control | – | 96% of control | – | 19% of control | 0.8% of control | 11% of control | C=CC(=O)N1CCC[C@@H](n2c(=O)n(-c3ccc(Oc4ccccc4)cc3)c3c(N)nccc32)C1 [Tolebrutinib] | MKK7 binding POC ([13]; listed as tolebrutinib): weak hit

Row | Structure (SMILES) | JNK2 (MAPK9) POC [1] | ERBB2 binding POC [2] | JNK3 (MAPK10) POC [3] | ERBB4 binding POC [4] | TXK binding POC [5] | JAK3 binding POC [6] | BLK binding POC [7] | TEC binding POC [8] | ITK binding POC [9] | EGFR binding POC [10] | JNK1 (MAPK8) POC [11] | BTK binding POC [12] | MKK7 binding POC [13] | ERBB3 binding POC [14] | BMX binding POC [16] | further results
5 | C=CC(=O)N1CCC(CNc2ncnc(N)c2-c2ccc(Oc3ccccc3)cc2)CC1 [Evobrutinib] | 100% of control | 91% of control | 100% of control | 32% of control | 23% of control | 100% of control | – | 10% of control | – | 88% of control | 95% of control | – | 100% of control | 97% of control | – | –
